Marks after values point to notes of the source that are not given here.
What was measured:
[1] = tested on: AMPK/PPAR-δ/PGC1α proteins; assay: Western blot of AMPK, PPAR-δ and PGC-1α proteins in cardiac muscle, skeletal muscle, fat and liver of SHR
[2] = tested on: mouse skeletal muscle cells (C2C12); assay: Western blot of p-AMPK and PPAR-δ in midodrine-treated skeletal muscle cells; format: cell-based; settings: FIG. 1
Protocol: (§1) The L6 and HL1 cells were grown in a medium (DMEM) containing 10% FBS (fetal bovine serum) and 1% antibiotic until about 80% confluence, and then the medium was replaced with a medium containing 1% FBS for differentiation for 4 days. The drug was treated on day 3 of differentiation. All in-vitro experiments using the L6 and HL1 cells were conducted 24 hours after the drug treatment.
(§2) In order to investigate the effect of α1-AR stimulation on AMPK and AMPK phosphorylation (activation) in vitro, the mouse skeletal muscle cells […] and the mouse cardiac muscle cells (HL1) cultured in Example 1-1 were treated with 30 μM of midodrine, which is an α1-AR agonist, and then western blot was conducted as described in Example 2-3.

[3] = Body weight, heart weight and abdominal fat weight in SHR; format: in vivo, spontaneously hypertensive rat (SHR)
Protocol: Body weight was measured for the same rats whose cardiac function was measured.
When the body weight and the weight of abdominal fat (visceral fat) were measured for the midodrine-administered rat (II), atenolol-administered rat (III) and unadministered 8-week-old hypertensive control rat (IV) of Example 1-2, midodrine administration decreased both the body weight and abdominal fat as shown in FIG. 9.

[4] = tested on: SDH (succinate dehydrogenase); assay: Enzymatic activity of SDH in skeletal muscle of SHR; format: in vivo, spontaneously hypertensive rat (SHR); settings: among groups I-IV, FIG. 3A
Protocol: After adding 10 μL of protease inhibitor cocktail per 1 mL of PBS (phosphate-buffered saline) to each well (500 μL), 410 μL of a culture solution prepared by mixing 1 M phosphate buffer (25 μL×25=625 μL), 0.2 M sodium succinate (125 μL×25=3125 μL), NBT (25 μL×25=625 μL) and D.W. (235 μL×25=5875 μL) per well was heated to 37° C. for 20 minutes. […] After conducting centrifugation at 13000 rpm and 4° C. for 5 minutes, the supernatant was recovered and transferred to a fresh tube. After adding 410 μL of a culture solution to a tube, enzymatic reaction was conducted by adding 90 μL of the sample. After adding 410 μL of distilled water (DW) to another tube and adding 90 μL of the sample, the absorbance of the dilute was measured. After adding the enzymatic reaction tube and the another tube in water bath at 37° C., respectively, reaction was conducted for 30 minutes. The reaction was terminated by putting the tube in ice. After adding 200 μL to each well of a 96-well plate, absorbance was measured at 550 nm. Then, the enzymatic activity of succinate dehydrogenase (SDH) was measured by the following equation.
Enzymatic activity=(absorbance of enzymatic reaction solution−absorbance of diluted enzymatic reaction solution)/protein content (Bradford 595 nm)

[5] = tested on: HMG-CoA reductase protein (HMGCR); assay: Expression of HMG-CoA reductase protein in liver of SHR; format: in vivo, spontaneously hypertensive rat (SHR); settings: among rat groups, FIG. 7
[6] = tested on: mouse cardiac muscle cells (HL1); assay: Western blot of p-AMPK and PPAR-δ in midodrine-treated cardiac muscle cells; format: cell-based; settings: FIG. 1
Protocol: as §1, §2

[7] = Blood adiponectin by ELISA, normalized to visceral fat weight; format: in vivo, spontaneously hypertensive rat (SHR); settings: SHR, 4 weeks in drinking water, mean ± SD
Text: The measured adiponectin level was normalized to the visceral fat weight (g).

[8] = tested on: mouse-derived preadipocytes (3T3-L1); assay: Fat content in adipocytes observed by microscope; format: cell-based; settings: FIG. 8A
Protocol: (§3) The 3T3-L1 cells were grown in a medium (DMEM) containing 10% FBS (fetal bovine serum) and 1% antibiotic until 100% and then cultured for 48 hours after replacing the medium with a fresh medium. After adding a differentiation medium and the drug, the cells were cultured for 48 hours. The composition of the differentiation medium was as follows: 0.0125 μmol/mL dexamethasone, 12.5 μmol/mL 3-isobutyl-1-methylxanthine, 10 μg/mL insulin, 10% FBS. After treating with the differentiation medium for 48 hours, the medium was replaced with an insulin medium containing 10 μg/mL insulin and 10% FBS and then treated for 48-96 hours. Then, after replacing the medium with a normal medium containing 10% FBS only, the cells were cultured for 24-48 hours and then used for experiments.

cytochrome c oxidase = assay: Immunohistochemical staining for cytochrome c oxidase in skeletal muscle tissue of SHR; format: in vivo, spontaneously hypertensive rat (SHR); settings: among groups I-IV, FIG. 3B
[9] = tested on: spontaneously hypertensive rat (SHR); assay: Cardiac function by M-mode echocardiography and heart rate in SHR; settings: for Diastolic left ventricular inner diameter / Diastolic left ventricular posterior wall / Diastolic left ventricular wall / Left ventricular ejection fraction / Left ventricular fractional shortening / Left ventricular mass measured by ASE / Systolic left ventricular inner diameter / left ventricular performance: 8-week-old SHR, echocardiography; for Diastolic left ventricular inner diameter / Diastolic left ventricular posterior wall / Diastolic left ventricular wall / Left ventricular ejection fraction / Left ventricular fractional shortening / Left ventricular mass measured by ASE / Systolic left ventricular inner diameter: 4 weeks in drinking water (midodrine 0.3 mg/kg/day, atenolol 1 mg/kg/day), mean ± SD; for left ventricular performance: compared with unadministered control group IV
[10] = ATP level in tissue by ELISA; format: in vivo, spontaneously hypertensive rat (SHR); settings: SHR, compared to control SHRs, FIG. 4
Protocol: 0.02 g of liver tissue isolated from the rats of Example 1-2 was homogenized in 500 μL of PBS. The homogenate was centrifuged at 1500×g (or 5000 rpm) for 15 minutes and the supernatant was recovered. After adding 100 μL of standard materials or samples to adequate wells of a pre-coated microtiter plate, 10 μL of the remaining solution was added to the sample. After adding 50 μL of the conjugate to each well and then mixing, the plate was covered and incubation was conducted at 37° C. for 1 hour. After adding 50 μL of each of substrates A and B to each well, incubation was conducted at 37° C. for 15 minutes. After adding a stop solution to each well, optical density was measured at 450 nm using a microplate reader.
The ATP level in the heart, skeletal muscle and liver of basal 4-week-old rat (I), midodrine-administered rat (II), atenolol-administered rat (III) and unadministered 8-week-old control rat (IV) was measured by ELISA according to the method of Example 2-1.

preadipocytes (3T3-L1) = assay: Western blot of PPAR-δ, p-AMPK and PGC-1α in midodrine-treated adipocytes; format: cell-based, mouse; settings: midodrine-treated adipocytes (3T3-L1), FIG. 8B
Protocol: as §3
In addition, when western blotting was conducted on the midodrine-treated adipocytes according to the method of Example 2-3, the expression of […], p-AMPK and PGC-1α proteins suppressing fat synthesis/accumulation was increased as shown in FIG. 8B.

[11] = 8-week-old SHR, 4 weeks in drinking water (midodrine 0.3 mg/kg/day, atenolol 1 mg/kg/day), mean ± SD

Structure (SMILES)	Body weight [3, 11]	Hear weight [3, 11]	expression level of HMG-CoA reductase protein (HMGCR) in the liver [5]	Adiponectin (serum level per weight of visceral fat) [7]	Diastolic left ventricular inner diameter [9]	Diastolic left ventricular posterior wall [9]	Diastolic left ventricular wall [9]	Left ventricular ejection fraction [9]	Left ventricular fractional shortening [9]	Left ventricular mass measured by ASE [9]	Systolic left ventricular inner diameter [9]	left ventricular performance [9]	ATP level in heart tissue [10]	further results
COc1ccc(OC)c(C(O)CNC(=O)CN)c1 (racemic) [Midodrine, (RS)—N-[2-(2,5-dimethoxyphenyl)-2-hydroxyethyl]glycinamide]	238.24 ± 11.69^a g	1.47 ± 0.16^a g	the lowest	7585.8 ± 182.3^b ng/mL/g	6.06 ± 0.42^a mm	1.54 ± 0.13^a mm	1.46 ± 0.13^a mm	81.55 ± 6.12^a %	45.48 ± 6.25^a %	1.04 ± 0.06 g	3.32 ± 0.54^a mm	higher	higher	AMPK expression in cardiac muscle ([1]; 4 weeks in drinking water, compared to control group IV, FIG. 2B): remarkably higher; AMPK expression in skeletal muscle ([1]; 4 weeks in drinking water, compared to control group IV, FIG. 2C): remarkably higher; AMPK expression in fat ([1]; 4 weeks in drinking water, compared to control group IV, FIG. 2D): remarkably higher; expression level of the phosphorylated AMPK protein in the liver ([1]; among groups I-IV, FIG. 2E): the highest; activation and expression of AMPK, PPAR-δ and PGC-1α in the heart, skeletal muscle and liver ([1]; summary statement): induces activation and increased expression; expression of PPAR-δ protein [2]: increases; expression of phosphorylated AMPK ([2]; midodrine 30 μM): increased; Body weight ([3]; SHR groups II, III and IV, FIG. 9 (A)): decreased; weight of abdominal fat (visceral fat) ([3]; SHR groups II, III and IV, FIG. 9 (B)): decreased; enzymatic activity of SDH in skeletal muscle [4]: the highest increase; expression of PPAR-δ protein [6]: increases; expression and phosphorylation of AMPK ([6]; midodrine 30 μM): resulted in the expression and phosphorylation of AMPK; Adiponectin (serum level per weight of visceral fat) ([7]; listed as group II): remarkably higher; fat content in adipocytes ([8]; 3T3-L1, 30 μM/L midodrine, microscope): decreased; cytochrome c oxidase immunohistochemical staining in skeletal muscle tissue (cytochrome c oxidase): the highest increase; Left ventricular mass measured by ASE ([9]; listed as group II): the lowest; cardiac hypertrophy or further increase in blood pressure ([9]; SHR, summary statement, no blood pressure method described): without cardiac hypertrophy or further increase in blood pressure; expression of PGC-1α protein (preadipocytes (3T3-L1)): increased; expression of PPAR-5 protein (preadipocytes (3T3-L1)): increased; expression of p-AMPK protein (preadipocytes (3T3-L1)): increased
CC(C)NCC(O)COc1ccc(CC(N)=O)cc1 (stereo not shown) [Atenolol, atenolol]	296.46 ± 16.73^b g	1.47 ± 0.15^a g	the lowest	6136.5 ± 574.7^b,c ng/mL/g	6.33 ± 0.35^a mm	1.67 ± 0.16 mm	1.50 ± 0.13^a mm	82.00 ± 5.31^a %	45.70 ± 5.82^a %	1.10 ± 0.07^a g	3.43 ± 0.28^a mm	higher	higher	Body weight ([3]; 8-week-old SHR, 4 weeks in drinking water (midodrine 0.3 mg/kg/day, atenolol 1 mg/kg/day), mean ± SD, listed as group III): the highest; heart rate ([9]; SHR from 4 weeks of age, measured over 1 month, at the end of the experiment, among three groups, FIG. 6): the lowest
COC(=O)c1sccc1S(=O)(=O)Nc1ccc(Nc2ccccc2)cc1OC [GSK0660]	–	–	–	–	–	–	–	–	–	–	–	–	–	effect on fat content in adipocytes when GSK0660 is added to midodrine ([8]; 3T3-L1, 30 μM/L midodrine + 50 μM/L GSK0660 mixture (1:2 (w/w))): the effect of midodrine was decreased

From patent US20190240172A1, “PHARMACEUTICAL COMPOSITION FOR PREVENTING OR TREATING DIABETES AND/OR […] COMPRISING MIDODRINE OR PHARMACEUTICALLY ACCEPTABLE SALT THEREOF AS ACTIVE INGREDIENT” (Cellvertics Co., Ltd., priority 2016, published 2019)
